Like-named read-outs stand apart in the source and are kept apart here.
Columns and labels:
[1] = tested on: P. berghei-ANKA-GFP-LucCON liver stage parasites in HepG2-A16-CD81EGFP cells; test: P. berghei liver stage Pb-Luc assay, Method 1 (UCSD, 1536-well); format: cell-based, Plasmodium berghei; conditions: P. berghei liver stage, averaged response (percent); for Average P. berghei 1 µM response (%): the header list (r8) defines it as the 1 µM dose
[2] = tested on: P. falciparum Dd2 (clone B2) asexual blood stage parasites; test: P. falciparum Dd2 asexual blood stage SYBR Green-I 72 h proliferation assay (qHTS); format: cell-based, Plasmodium falciparum; conditions: for Pf ABS Log AC50 (M): averaged P. falciparum asexual blood stage potency, log10 of AC50 in M
[3] = tested on: HepG2-A16-CD81EGFP cells; conditions: averaged response (percent)
[4] = HepG2, the header list (r10) describes it as the 1 µM dose

| Compound | Average P. berghei 3 µM response( %) [1] | Average P. berghei 1 µM response (%) [1] | Pf ABS Log AC50 (M) [2] | Average HepG2 3 µM response( %) ([3]; HepG2, 3 µM dose) | Average HepG2 3 µM response( %) [3, 4] | AC50 ([2]; Plasmodium falciparum, DD2, 72 h, SYBR Green 72 h, read-out: AC50, Dd2 ABS parasites) |
| --- | --- | --- | --- | --- | --- | --- |
| COC(=O)[C@H]1[C@H]2C[C@@H]3c4[nH]c5cc(OC)ccc5c4CCN3C[C@H]2C[C@@H](OC(=O)/C=C/c2cc(OC)c(OC)c(OC)c2)[C@@H]1OC [MLS002153878] | 84% | 102% | -5.162 M | 105% | 105% | – |
| Cc1cc(Cl)c(S(=O)(=O)N2CCN(c3ccccn3)CC2)cc1OCC(=O)NC1CCCCC1 [MLS000693481] | 74% | 99% | -6.387 M | 100% | 93% | – |
| c1ccc2c(NCCc3c[nH]c4ccccc34)c3ccccc3nc2c1 [MLS001195935] | 47% | – | -5.937 M | 82% | 91% | – |
| CCOc1ccc(Nc2nc(NCC3CCCO3)c3ccccc3n2)cc1 (centres unmarked) [MLS000724397] | 10% | 59% | -5.737 M | 84% | 102% | – |
| Cn1ccc(NCc2nnc(C(=O)N3CCC[C@@H]3C(c3ccccc3)c3ccccc3)n2-c2ccccc2)n1 [NCGC00415774] | 89% | 95% | -5.875 M | 99% | 96% | – |
| c1ccc(CNc2nc(-c3ccccn3)nc3ccccc23)cc1 [MLS001165148] | 8% | 72% | -5.662 M | 87% | 96% | – |
| CCOc1ccccc1CN1CCC2(CCN(CCC(C)C)CC2)Oc2ccccc21 [NCGC00478188] | 48% | 106% | -5.475 M | 105% | 100% | – |
| O=S1(=O)N(CCN2CC=C(c3c[nH]c4cc(F)ccc34)CC2)c2cccc3c2N1CCC3 [MLS002172448] | 60% | 78% | -6.050 M | 80% | 88% | – |
| Cc1ccc(NC(=O)CCS(=O)(=O)c2cc(Br)cc3c2N(C(=O)C2CC2)CC3)cc1 [NCGC00107230] | 118% | 117% | -5.625 M | 102% | 99% | – |
| CC(C)C(=O)OCC(=O)[C@@]12O[C@H](C3CCCCC3)O[C@@H]1C[C@H]1[C@@H]3CCC4=CC(=O)C=C[C@]4(C)[C@H]3[C@@H](O)C[C@@]12C [NCGC00167484] | 125% | 137% | -5.762 M | 92% | 94% | – |
| Cc1ccc(/C=N/NC(=O)c2cc3ccccc3cc2O)o1 [MLS001219838] | 6.47% | 18% | -5.275 M | 98% | 98% | – |
| Oc1ccc(-c2nnc(S)n2-c2ccc3c(c2)OCCO3)c(O)c1 [MLS000332001] | 70% | 78% | -6.012 M | 95% | 101% | – |
| O=C1c2cc(F)ccc2-n2c1nc1ccccc1c2=O [MLS001216278] | 13% | 25% | -5.937 M | 94% | 94% | – |
| COc1cc2c(cc1Oc1cccc(N(C)C)c1)NC(=O)C21CCN(c2cnccn2)CC1 [NCGC00416778] | 43% | 96% | -5.825 M | 89% | 98% | – |
| O=C1CC(c2ccccc2)N(Cc2ccncc2)CCCN(C(=O)Nc2ccccc2F)CCN1 (centres unmarked) [NCGC00467191] | 73% | 88% | -5.775 M | 103% | 107% | – |
| CCOC(=O)c1c[nH]c2c(C)cc(C)cc2c1=O [MLS000530578] | 9.48% | 49% | -5.437 M | 102% | 102% | – |
| Cc1ccc2oc(=O)c3cnn(CC(=O)Nc4cccc(C(F)(F)F)c4)c3c2c1 [NCGC00110933] | 101% | 114% | -5.575 M | 98% | 97% | – |
| CCc1cccc(-n2c(=O)c3cccnc3n2CC(=O)Nc2ccc(F)c(C)c2)c1 [NCGC00128424] | 91% | 110% | -5.575 M | 103% | 107% | – |
| COc1ccccc1NC(=O)CN1CCN(C(=O)c2ccco2)CC1 [MLS000122729] | 65% | 115% | -5.462 M | 102% | 102% | – |
| C[C@H]1[C@@H](O)O[C@@H]2O[C@@]3(C)CC[C@H]4[C@H](C)CC[C@@H]1[C@@]24OO3 [dihydroartemisinin, reference compound] | – | – | – | – | – | 2 nM |
